Assay results published in PMC6688997 (Nature Communications, 2019).

Key:
Experiment in all cases: Kinase assay, 1 mM ATP
Type in all cases: biochemical
PKCα = PKCα (Homo sapiens, UniProt P17252)
Procedure: (§1) An off-chip mobility shift assay was performed by Carna Biosciences, Inc. (Kobe, Japan), according to their product instructions. […] The IC50 values were estimated according to the four-parameter logistic model.

RET(S891A) = target: T1, RET(S891A) (Homo sapiens, UniProt P07949, S891A)
T1 construct: purchased Carna Biosciences
T1 sequence (P07949 29-1114 S891A): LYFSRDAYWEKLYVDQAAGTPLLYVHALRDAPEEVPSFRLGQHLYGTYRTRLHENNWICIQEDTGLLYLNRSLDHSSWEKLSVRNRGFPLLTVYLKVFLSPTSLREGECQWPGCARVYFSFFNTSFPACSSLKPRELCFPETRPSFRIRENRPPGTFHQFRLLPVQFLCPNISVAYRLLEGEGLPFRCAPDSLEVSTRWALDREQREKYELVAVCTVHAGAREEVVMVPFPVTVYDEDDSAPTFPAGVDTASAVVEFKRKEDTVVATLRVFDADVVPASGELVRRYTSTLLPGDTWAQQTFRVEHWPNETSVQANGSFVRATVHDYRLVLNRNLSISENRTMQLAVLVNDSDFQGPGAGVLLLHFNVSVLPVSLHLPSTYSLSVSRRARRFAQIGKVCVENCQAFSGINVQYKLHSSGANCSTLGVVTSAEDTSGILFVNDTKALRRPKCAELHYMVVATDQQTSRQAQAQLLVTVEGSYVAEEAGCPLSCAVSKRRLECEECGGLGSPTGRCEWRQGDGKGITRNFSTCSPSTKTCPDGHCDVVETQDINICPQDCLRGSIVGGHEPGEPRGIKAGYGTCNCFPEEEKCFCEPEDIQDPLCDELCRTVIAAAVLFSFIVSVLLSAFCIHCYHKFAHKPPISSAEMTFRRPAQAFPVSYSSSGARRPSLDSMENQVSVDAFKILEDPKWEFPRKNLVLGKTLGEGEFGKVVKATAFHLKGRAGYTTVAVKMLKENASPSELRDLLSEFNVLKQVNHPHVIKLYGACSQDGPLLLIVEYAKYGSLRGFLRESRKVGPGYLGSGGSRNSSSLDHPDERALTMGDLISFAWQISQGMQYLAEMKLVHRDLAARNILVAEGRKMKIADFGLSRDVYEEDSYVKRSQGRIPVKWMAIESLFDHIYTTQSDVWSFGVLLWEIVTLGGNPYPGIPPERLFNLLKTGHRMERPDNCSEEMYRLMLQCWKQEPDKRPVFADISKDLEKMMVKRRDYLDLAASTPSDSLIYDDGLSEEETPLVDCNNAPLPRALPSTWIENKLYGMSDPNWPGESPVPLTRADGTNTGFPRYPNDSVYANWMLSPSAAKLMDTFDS
Procedure: as §1

TSSK1 = target: T2, TSSK1 (Homo sapiens, UniProt Q9BXA7)
T2 construct: purchased Carna Biosciences
Procedure: as §1

MAPKAPK2 = target: T3, MAPKAPK2 (Homo sapiens, UniProt P49137)
T3 construct: purchased Carna Biosciences
Procedure: as §1

GSK3α = GSK3α (Homo sapiens, UniProt P49840)
Procedure: as §1

NEK7 = NEK7 (Homo sapiens, UniProt Q8TDX7)
Procedure: as §1

AKT1 = AKT1 (Homo sapiens, UniProt P31749)
Sequence of AKT1 (P31749 whole entry): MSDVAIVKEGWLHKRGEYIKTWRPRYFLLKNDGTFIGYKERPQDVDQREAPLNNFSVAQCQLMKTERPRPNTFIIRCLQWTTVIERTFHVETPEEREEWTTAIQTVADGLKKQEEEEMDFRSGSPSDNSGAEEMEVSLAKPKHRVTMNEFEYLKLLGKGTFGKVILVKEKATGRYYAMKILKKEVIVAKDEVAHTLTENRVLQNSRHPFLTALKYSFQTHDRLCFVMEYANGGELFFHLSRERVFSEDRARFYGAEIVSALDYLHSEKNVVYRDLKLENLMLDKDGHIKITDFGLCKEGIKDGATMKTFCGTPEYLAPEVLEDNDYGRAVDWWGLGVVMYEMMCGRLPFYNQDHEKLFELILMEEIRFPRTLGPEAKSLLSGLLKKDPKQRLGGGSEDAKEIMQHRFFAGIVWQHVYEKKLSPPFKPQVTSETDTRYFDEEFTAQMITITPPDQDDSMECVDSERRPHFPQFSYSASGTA
Procedure: as §1

CDK5/p25 = CDK5/p25 (Homo sapiens, UniProt Q00535)
Procedure: as §1

RON = target: T4, RON (Homo sapiens, UniProt Q04912)
T4 construct: purchased Carna Biosciences
Procedure: as §1

RET(M918T) = target: T5, RET(M918T) (Homo sapiens, UniProt P07949, M918T)
T5 construct: purchased Carna Biosciences
T5 sequence (P07949 29-1114 M918T): as the sequence (P07949 29-1114 S891A) above, with A863S, M890T counted along it
Procedure: as §1

EPHA3 = EPHA3 (Homo sapiens, UniProt P29320)
Procedure: as §1

BMX = target: T6, BMX (Homo sapiens, UniProt P51813)
T6 construct: purchased Carna Biosciences
T6 sequence (P51813 whole entry): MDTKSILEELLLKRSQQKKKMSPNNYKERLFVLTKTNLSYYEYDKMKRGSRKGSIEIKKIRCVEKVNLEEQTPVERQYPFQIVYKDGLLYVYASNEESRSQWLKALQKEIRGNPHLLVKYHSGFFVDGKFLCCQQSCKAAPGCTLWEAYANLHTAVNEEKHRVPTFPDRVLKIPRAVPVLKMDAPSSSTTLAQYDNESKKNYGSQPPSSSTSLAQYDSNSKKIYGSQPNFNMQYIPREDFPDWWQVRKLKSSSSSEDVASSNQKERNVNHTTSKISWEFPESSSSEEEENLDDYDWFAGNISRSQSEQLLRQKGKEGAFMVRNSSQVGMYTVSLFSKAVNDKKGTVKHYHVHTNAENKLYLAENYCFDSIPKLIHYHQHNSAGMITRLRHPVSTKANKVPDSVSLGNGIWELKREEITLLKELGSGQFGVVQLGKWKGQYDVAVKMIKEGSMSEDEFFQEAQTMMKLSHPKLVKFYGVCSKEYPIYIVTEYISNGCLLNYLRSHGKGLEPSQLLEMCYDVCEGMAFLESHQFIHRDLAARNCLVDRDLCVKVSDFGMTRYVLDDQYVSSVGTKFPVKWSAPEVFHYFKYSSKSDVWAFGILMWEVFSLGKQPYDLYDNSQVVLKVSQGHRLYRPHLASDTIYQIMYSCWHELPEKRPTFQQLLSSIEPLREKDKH
Procedure: as §1

PKCε = target: T7, PKCε (Homo sapiens, UniProt Q02156)
T7 construct: purchased Carna Biosciences
T7 sequence (Q02156 whole entry): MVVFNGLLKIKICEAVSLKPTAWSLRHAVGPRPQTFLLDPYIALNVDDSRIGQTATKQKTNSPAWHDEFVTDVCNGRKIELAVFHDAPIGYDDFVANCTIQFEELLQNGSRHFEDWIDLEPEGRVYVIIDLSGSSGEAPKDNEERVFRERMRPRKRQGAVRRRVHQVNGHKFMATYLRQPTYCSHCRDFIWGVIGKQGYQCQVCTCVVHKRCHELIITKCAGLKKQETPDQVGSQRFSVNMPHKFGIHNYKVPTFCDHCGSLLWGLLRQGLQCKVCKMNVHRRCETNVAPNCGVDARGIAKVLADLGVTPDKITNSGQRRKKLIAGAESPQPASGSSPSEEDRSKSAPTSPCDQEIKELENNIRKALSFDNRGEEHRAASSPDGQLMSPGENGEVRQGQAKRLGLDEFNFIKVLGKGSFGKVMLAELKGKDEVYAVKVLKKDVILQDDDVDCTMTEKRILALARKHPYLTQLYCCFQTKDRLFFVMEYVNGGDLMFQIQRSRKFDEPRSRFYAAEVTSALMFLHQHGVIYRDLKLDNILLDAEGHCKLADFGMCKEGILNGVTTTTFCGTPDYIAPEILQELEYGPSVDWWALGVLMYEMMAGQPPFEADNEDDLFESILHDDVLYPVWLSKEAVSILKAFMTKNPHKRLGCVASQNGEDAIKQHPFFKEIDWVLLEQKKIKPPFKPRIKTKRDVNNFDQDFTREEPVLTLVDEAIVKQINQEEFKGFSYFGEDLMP
Procedure: as §1

AXL = target: T8, AXL (Homo sapiens, UniProt P30530)
T8 construct: purchased Carna Biosciences
Procedure: as §1

CDK4/CycD3 = CDK4/CycD3 (Homo sapiens, UniProt P11802)
Procedure: as §1

CHK1 = CHK1 (Homo sapiens, UniProt O14757)
Sequence of CHK1 (O14757 whole entry): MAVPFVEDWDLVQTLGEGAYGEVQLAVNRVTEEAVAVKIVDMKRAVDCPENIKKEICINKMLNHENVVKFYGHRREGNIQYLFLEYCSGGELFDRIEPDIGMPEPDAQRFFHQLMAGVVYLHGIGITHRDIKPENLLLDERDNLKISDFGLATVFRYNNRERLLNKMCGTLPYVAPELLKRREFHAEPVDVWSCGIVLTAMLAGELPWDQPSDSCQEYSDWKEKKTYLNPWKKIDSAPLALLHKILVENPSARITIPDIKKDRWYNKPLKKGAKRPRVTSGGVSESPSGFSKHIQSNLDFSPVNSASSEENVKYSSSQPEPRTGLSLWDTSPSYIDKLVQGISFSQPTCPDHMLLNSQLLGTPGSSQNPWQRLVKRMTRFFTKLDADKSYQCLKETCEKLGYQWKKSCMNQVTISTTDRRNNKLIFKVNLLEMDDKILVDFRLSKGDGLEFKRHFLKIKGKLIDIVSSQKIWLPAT
Procedure: as §1

AurB = AurB (Homo sapiens, UniProt Q96GD4)
Procedure: as §1

CK2α1/β = CK2α1/β (Homo sapiens, UniProt P68400)
Procedure: as §1

NEK6 = target: T9, NEK6 (Homo sapiens, UniProt Q9HC98)
T9 construct: purchased Carna Biosciences
Procedure: as §1

Erk2 = Erk2 (Homo sapiens, UniProt P28482)
Procedure: as §1

YES = YES (Homo sapiens, UniProt P07947)
Procedure: as §1

SRC = SRC (Homo sapiens, UniProt P12931)
Procedure: as §1

QIK = QIK (Homo sapiens, UniProt Q9H0K1)
Procedure: as §1

p38δ = p38δ (Homo sapiens, UniProt O15264)
Procedure: as §1

EGFR(d746-750/T790M) = target: T10, EGFR(d746-750/T790M) (Homo sapiens, UniProt P00533, DEL746-750/T790M)
T10 construct: purchased Carna Biosciences
Procedure: as §1

EPHA7 = EPHA7 (Homo sapiens, UniProt Q15375)
Procedure: as §1

TIE2 = target: T11, TIE2 (Homo sapiens, UniProt Q02763)
T11 construct: purchased Carna Biosciences
Procedure: as §1

AurA = AurA (Homo sapiens, UniProt O14965)
Sequence of AurA (O14965 whole entry): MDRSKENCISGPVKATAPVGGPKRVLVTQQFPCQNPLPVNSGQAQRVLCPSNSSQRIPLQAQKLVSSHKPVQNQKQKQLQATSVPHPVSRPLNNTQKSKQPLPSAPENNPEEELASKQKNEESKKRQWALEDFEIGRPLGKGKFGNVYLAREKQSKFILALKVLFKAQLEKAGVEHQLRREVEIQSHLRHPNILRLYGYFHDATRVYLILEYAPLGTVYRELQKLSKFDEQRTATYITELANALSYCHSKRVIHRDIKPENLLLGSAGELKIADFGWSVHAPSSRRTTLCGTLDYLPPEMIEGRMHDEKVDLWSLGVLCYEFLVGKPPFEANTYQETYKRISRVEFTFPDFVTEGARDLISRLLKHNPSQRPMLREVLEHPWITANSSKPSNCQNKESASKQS
Procedure: as §1

LCK = LCK (Homo sapiens, UniProt P06239)
Sequence of LCK (P06239 whole entry): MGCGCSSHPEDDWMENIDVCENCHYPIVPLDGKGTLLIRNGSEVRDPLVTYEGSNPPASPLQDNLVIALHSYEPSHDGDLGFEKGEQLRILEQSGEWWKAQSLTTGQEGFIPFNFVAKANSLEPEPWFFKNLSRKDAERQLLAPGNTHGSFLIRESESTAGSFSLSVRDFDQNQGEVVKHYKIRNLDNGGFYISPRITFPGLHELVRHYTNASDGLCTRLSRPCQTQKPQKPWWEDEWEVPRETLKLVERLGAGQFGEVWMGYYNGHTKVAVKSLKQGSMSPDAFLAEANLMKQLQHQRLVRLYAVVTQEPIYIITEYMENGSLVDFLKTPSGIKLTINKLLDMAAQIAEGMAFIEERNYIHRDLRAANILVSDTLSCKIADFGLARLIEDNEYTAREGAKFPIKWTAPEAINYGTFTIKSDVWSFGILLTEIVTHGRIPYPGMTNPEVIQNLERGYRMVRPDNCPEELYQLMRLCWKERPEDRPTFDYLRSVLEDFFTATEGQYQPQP
Procedure: as §1

JNK2 = JNK2 (Homo sapiens, UniProt P45984)
Procedure: as §1

CDK9/CycT1 = CDK9/CycT1 (Homo sapiens, UniProt P50750)
Procedure: as §1

CLK1 = CLK1 (Homo sapiens, UniProt P49759)
Procedure: as §1

LYNa = LYNa (Homo sapiens, UniProt P07948)
Procedure: as §1

ITK = target: T12, ITK (Homo sapiens, UniProt Q08881)
T12 construct: purchased Carna Biosciences
T12 sequence (Q08881 whole entry): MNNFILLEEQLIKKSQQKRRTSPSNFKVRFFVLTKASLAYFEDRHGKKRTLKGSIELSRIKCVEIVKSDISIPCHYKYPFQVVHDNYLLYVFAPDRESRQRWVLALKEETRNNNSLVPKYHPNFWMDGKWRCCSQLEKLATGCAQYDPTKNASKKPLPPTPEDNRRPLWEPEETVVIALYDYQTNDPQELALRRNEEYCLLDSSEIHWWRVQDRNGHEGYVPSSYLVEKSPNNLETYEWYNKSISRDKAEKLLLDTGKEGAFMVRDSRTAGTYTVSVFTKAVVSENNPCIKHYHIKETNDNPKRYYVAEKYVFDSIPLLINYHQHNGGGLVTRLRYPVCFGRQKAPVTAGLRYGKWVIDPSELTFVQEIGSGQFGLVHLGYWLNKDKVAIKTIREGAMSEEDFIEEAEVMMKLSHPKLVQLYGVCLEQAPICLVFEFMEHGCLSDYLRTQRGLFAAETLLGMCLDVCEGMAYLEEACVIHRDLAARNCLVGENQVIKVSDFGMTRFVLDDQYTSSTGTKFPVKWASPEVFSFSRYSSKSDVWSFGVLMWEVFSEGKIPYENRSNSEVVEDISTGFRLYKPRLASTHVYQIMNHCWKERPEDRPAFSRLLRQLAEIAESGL
Procedure: as §1

FER = target: T13, FER (Homo sapiens, UniProt P16591)
T13 construct: purchased Carna Biosciences
Procedure: as §1

FGFR4 = FGFR4 (Homo sapiens, UniProt P22455)
Procedure: as §1

MER = target: T14, MER (Homo sapiens, UniProt Q12866)
T14 construct: purchased Carna Biosciences
Procedure: as §1

SRM = target: T15, SRM (Homo sapiens, UniProt Q9H3Y6)
T15 construct: purchased Carna Biosciences
Procedure: as §1

ABL = ABL (Homo sapiens, UniProt P00519)
Procedure: as §1

FLT1 = target: T16, FLT1 (Homo sapiens, UniProt P17948)
T16 construct: purchased Carna Biosciences
Procedure: as §1

PYK2 = target: T17, PYK2 (Homo sapiens, UniProt Q14289)
T17 construct: purchased Carna Biosciences
Procedure: as §1

PKACα = PKACα (Homo sapiens, UniProt P17612)
Procedure: as §1

Molecule `C[C@@H](N)COc1ccc(-c2cnc3ccc(N[C@H](C)c4cccc(F)c4)nn23)cc1.O=C(O)CCCCC(=O)O` [DS-6051b] has an inhibition at 0.2 µM (PKCα) of 2%, an inhibition at 0.2 µM (RET(S891A)) of 2.5% and an inhibition at 0.2 µM (TSSK1) of -2.6%. It also gave an inhibition at 0.2 µM (MAPKAPK2) of -8.5%, an inhibition at 0.2 µM (GSK3α) of -3.4% and an inhibition at 0.2 µM (NEK7) of -2%. For the same molecule, the inhibition at 0.2 µM (AKT1) was -1.3%, the inhibition at 0.2 µM (CDK5/p25) was -7.4% and the inhibition at 0.2 µM (RON) was 9.2%. For the same molecule, the inhibition at 0.2 µM (RET(M918T)) was 0.9%, the inhibition at 0.2 µM (EPHA3) was 2.8% and the inhibition at 0.2 µM (BMX) was 10%. The inhibition at 0.2 µM (PKCε) was 18.8%, the inhibition at 0.2 µM (AXL) was 18% and the inhibition at 0.2 µM (CDK4/CycD3) was -0.7%. For the same molecule, the inhibition at 0.2 µM (CHK1) was -1.2%, the inhibition at 0.2 µM (AurB) was -12.2% and the inhibition at 0.2 µM (CK2α1/β) was -12.2%. It also gave an inhibition at 0.2 µM (NEK6) of -0.6%, an inhibition at 0.2 µM (Erk2) of -3.8% and an inhibition at 0.2 µM (YES) of 9%. It also gave an inhibition at 0.2 µM (SRC) of 9%, an inhibition at 0.2 µM (QIK) of -3.9% and an inhibition at 0.2 µM (p38δ) of -1.3%. The inhibition at 0.2 µM (EGFR(d746-750/T790M)) was -0.9%, the inhibition at 0.2 µM (EPHA7) was -4.9% and the inhibition at 0.2 µM (TIE2) was -2.2%. For the same molecule, the inhibition at 0.2 µM (AurA) was -15.7%, the inhibition at 0.2 µM (LCK) was 0.27% and the inhibition at 0.2 µM (JNK2) was -5.1%. It also gave an inhibition at 0.2 µM (CDK9/CycT1) of -2.9%, an inhibition at 0.2 µM (CLK1) of 2% and an inhibition at 0.2 µM (LYNa) of 3.1%. For the same molecule, the inhibition at 0.2 µM (ITK) was -2.5%, the inhibition at 0.2 µM (FER) was 5.5% and the inhibition at 0.2 µM (FGFR4) was 3.7%. The inhibition at 0.2 µM (MER) was 7.1%, the inhibition at 0.2 µM (SRM) was -3.1% and the inhibition at 0.2 µM (ABL) was -1.1%. For the same molecule, the inhibition at 0.2 µM (FLT1) was -3.1%, the inhibition at 0.2 µM (PYK2) was 8.9% and the inhibition at 0.2 µM (PKACα) was -7%.
